Test results as given in patent US5273991A, “Imidazole-containing compositions and methods of use thereof analogs of distamycin” (Research Corporation Technologies, Inc., priority 1992, dated 1993).

Legend:
Assay type in all cases: binding
[1] = target: poly(dGdC); experiment: ethidium displacement assay, poly(dGdC); conditions: poly(dGdC); ± 0.02 × 10^5 M^-1; pH 7.4
Source text: (§1) The ethidium displacement assay is based on the fact that ethidium binding to DNA causes a large (approximately 25 fold) florescence enhancement as a result of the hydrophobic environment surrounding the ethidium molecule. Displacement of ethidium results in decreased fluorescence, and thus binding constants of drugs to DNA can be estimated and compared by measuring the loss of fluorescence as a function of added drug. The drug concentration which produces 50% inhibition of florescence is approximately inversely proportional to the apparent binding constant.
(§2) The relative DNA binding constants (Kapp) of distamycin and Compounds 6-10 to calf thymus DNA, T4 coliphage DNA, poly(dAdT) and poly(dGdC) were determined using the ethidium displacement assay (Morgan et al., 1979). The Kapp of ethidium bromide (Debart et al., 1989) is included for comparison. 25 μL of a 2A260 DNA solution was added to 2 mL of ethidium bromide buffer (250 μL of 1.3 mM ethidium bromidestock, 314.9 mg Tris-HCl, 60.8 mg Tris base and 930/mg of Na2 EDTA.2H2 O in 250 ml H2 O) pH 7.4 and the maximum fluorescence was measured (excitation wavelength=546 nm, emission wavelength=600 nm) at ambient temperature.
(§3) DNA solutions of 2A260 were prepared as follows: T4 coliphage DNA: 10 units of DNA were dissolved in 1 mL of 10 mM sodium phosphate (pH 7.1) and 0.25 mM EDTA buffer to give a 10A260 solution. 0.3 mL of the stock solution were diluted to 1.5 mL with 10 mM sodium phosphate (pH 7.1) and 0.25 mM EDTA buffer to give a 2A260 solution. Calf thymus DNA: 100 units of DNA were dissolved in 5 mL of 10 mM sodium phosphate (pH 7.1) and 0.25 mM EDTA buffer to give a 20A260 solution. 1.5 mL of the stock solution were diluted to 15 mL with 10 mM sodium phosphate (pH 7.1) and 0.25 mM EDTA buffer to give a 2A260 solution. Poly(dA-dT) and Poly(dG-dC) DNA: 100 units of DNA were dissolved in 10 mL of 10 mM sodium phosphate pH 7.1) and 0.25 mM EDTA buffer to give a 10A260 solution. 3 mL of the stock solution were diluted to 15 mL with 10 mM sodium phosphate (pH 7.1) and 0.25 mM EDTA buffer to give a 2A260 solution.
(§4) Aliquots of 10 mM stock drug solution (1 mg of drug to be tested was dissolved with 1 mole equivalent of 0.1M HCl, and then diluted with appropriate volume of distilled water to make a 10 mM solution) were then added to the fluorescing solution and the florescence measured after each addition until a 50% reduction of fluorescence occurred. If the 10 mM stock solution lowered the % fluorescence too quickly, the stock solution was further diluted to 1 mM prior to titration. The apparent binding constant was then calculated from this equation: KEtBr [EtBr]=Kapp [drug], where [drug]=the concentration of drug at a 50% reduction of fluorescence and KEtBr [1×10^7 M^-1 for calf thymus and coliphage T4 DNA^18, 9.5×10^6 M^-1 for poly(dA.dT)^30, and 9.9×10^6 M^-1 for poly(dG.dC)^30 ] and [EtBr] were known. The concentration of ethidium bromide was 1.3 μM. The Kapp values are shown in Table I. In a separate experiment, the Kapp of Compound 5 for calf thymus DNA and poly[dGdC] were determined to be 0.3×10^5 M^-1 and 2.6×10^5 M^-1, respectively. The error in these measurements is ±[…].

[2] = tested on: DNAs [calf thymus, poly(dA dT) and poly(dG dC)]; experiment: circular dichroism (CD) titration, DNAs together; conditions: for drug-induced CD bands, wavelength: drugs alone do not exhibit any CD spectra
Protocol: The DNA binding properties of the present compounds were assessed by circular dichroism (CD) titration experiments. Methods for CD titration can be found, for example, in Zimmer et al. (1986) Prog. Biophys. Molec. Biol 47, 31. The conformation of DNA can be readily determined by CD experiments, and for B-DNA, characteristic positive and negative Cotton effects are observed at 260 and 245 nm, respectively.
The interaction of Compounds 6-10 to a number of DNAs [calf thymus, poly(dA dT) and poly(dG dC)] were analyzed by CD titration studies. All the CD titration experiments were performed using identical procedures, concentrations of DNA, and increments of drug:DNA ratios (or `r`, i.e. moles of drug to moles of DNA base pairs). Therefore, the differences observed in the CD spectra for the titration of each of the compounds to the polydeoxynucleotides may be directly compared to reflect their DNA binding properties.
All experiments were performed with a continuous flow of nitrogen purging the polarimeter. A 1 mm path length jacketed cell was used and all experiments were done at room temperature. Initially, DNA [0.02 μ moles (base pairs), 130 μL] was placed in the cell and the spectrum of the DNA alone was collected. Aliquots of drug were added and the spectra collected. The drug solutions were 1 mM and amounts of the drug added correspond to a drug to base pair ratio of 0.05, 0.10, 0.15, 0.20, 0.25, 0.30, 0.40, 0.50, 0.60, 0.80, 1.00. The scan parameters were set and standard for all experiments. The spectra were collected from 400 nm to 200 nm. The sensitivity was set at 1 mdeg and the scan speed was set at 20 nm per minute. Three scans were accumulated and automatically averaged by the computer. The λmax and ellipticity (mdeg) for each spectrum were collected from the raw scans and the final plots were smoothed by the noise reduction program on the computer. […] The induced CD band is presumably due to the uv absorption π to π^* transition of the drug in the drug:DNA complex. […] Therefore interaction of these drugs with DNA causes only minor conformational changes in the double helix.

[3] = tested on: T4 coliphage DNA; experiment: ethidium displacement assay, T4 coliphage DNA; conditions: ± 0.02 × 10^5 M^-1, pH 7.4
Source text: as §1
The apparent binding constants for T4 coliphage DNA are an indicator of the minor groove selectivity of the compounds of the present invention. The major groove of T4 coliphage DNA is blocked by α-glycosylation of the 5-hydroxymethylcytidine residues; therefore, the non-intercalating agents that bind to T4 coliphage DNA must interact in the minor groove [Lown (1982) Acc. Chem. Res., 15, 381].
as §2, §3, §4

Compound | Association constant Kapp [1] [M⁻¹] | drug-induced CD bands, wavelength [2] | Association constant Kapp [3] [M⁻¹] | binding preference from CD titration ([2]; induced band for poly(dG.dC) vs poly(dA.dT)) | CD titration result in words ([2]; three polydeoxyribonucleotides, r' up to 0.8)
CN(C)CCNC(=O)c1nc(NC(=O)c2nc(NC(=O)c3nc(NC(=O)c4ccc(N(CCCl)CCCl)cc4)cn3C)cn2C)cn1C [Compound 7, N-(N',N'-dimethylaminoethyl)-1-methyl-4-{1-methyl-4-[4-(4,4-bis-(2-chloroethyl)aminobenzamido)-1-methylimidazole-2-carboxamido]imidazole-2-carboxamido}imidazole-2-carboxamide] | 495000 | 290-340 nm | 168000 | – | –
CN(C)CCNC(=O)c1nc(NC(=O)c2nc(NC(=O)c3nc(NC(=O)CCCc4ccc(N(CCCl)CCCl)cc4)cn3C)cn2C)cn1C [Compound 10, N-(N',N'-dimethylaminoethyl)-1-methyl-4-{1-methyl-4-[4-(4,4-bis(2-chloroethyl)aminophenyl-1-butanamido)-1-methylimidazole-2-carboxamido]imidazole-2-carboxamido}imidazole-2-carboxamide] | 16000 | – | 19000 | binds more strongly to GC rich sequences of DNA | –
CN(C)CCNC(=O)c1nc(NC(=O)c2nc(NC(=O)CCCc3ccc(N(CCCl)CCCl)cc3)cn2C)cn1C [Compound 9, N-(N',N'-dimethylaminoethyl)-1-methyl-4-{4-[4,4-bis(2-chloroethyl)aminophenyl-1-butanamido]-1-methylimidazole-2-carboxamido}imidazole-2-carboxamide] | 76000 | – | 75000 | – | did not produce any notable changes in the CD spectra
CN(C)CCNC(=O)c1nc(NC(=O)c2nc(NC(=O)c3ccc(N(CCCl)CCCl)cc3)cn2C)cn1C [Compound 6, N-(N',N'-dimethylaminoethyl)-1-methyl-4-{4-[4,4-bis(2-chloroethyl)aminobenzamido]-1-methylimidazole-2-carboxamido}imidazole-2-carboxamide] | 455000 | 290-340 nm | 236000 | – | –
CN(C)CCNC(=O)c1nc(NC(=O)c2nc(NC(=O)c3nc(NCc4ccc(N(CCCl)CCCl)cc4)cn3C)cn2C)cn1C [Compound 8, N-(N',N'-dimethylaminoethyl)-1-methyl-4-{1-methyl-4-[4-(4,4-bis-(2-chloroethyl)aminobenzylamino)-1-methylimidazole-2-carboxamido]imidazole-2-carboxamido}imidazole-2-carboxamide] | 339000 | – | 193000 | – | –
